Patent US20130096067A1, “DROSOPHILA TUMOR STEM CELL MODEL AND USES THEREOF” (priority 2011, published 2013)
Read-outs that look alike come from different tables or passages of the source.

System: Raf-1^gof intestinal tumors
[1] = screen of 480 ICCB compounds in vials, compounds fed to flies with one-day old Raf-1^gof tumors, assessed three days later, esg-Gal4 luciferase
[2] = screen of 480 ICCB compounds in vials, compounds fed to flies with one-day old Raf-1^gof tumors, assessed three days later, esg-Gal4 luciferase, averaged from multiple wells
[3] = ICCB compounds fed in vials to flies with one-day old Raf-1^gof tumors, assessed three days later
[4] = ICCB compounds fed in vials to flies with one-day old Raf-1^gof tumors, assessed three days later, averaged from multiple wells
Also: test concentration or dose not given here.

MDL-28170
Log2 (fold) (luciferase activity, log2 of the fold difference relative to DMSO controls) [1]: −0.617
Fold (luciferase activity, fold difference relative to DMSO controls) [2]: 0.652

CC(/C=C/C(=O)NO)=C\[C@@H](C)C(=O)c1ccc(N(C)C)cc1 [trichostatin-A]
Log2 (fold) of luciferase activity relative to DMSO controls [3]: −0.109
Fold (luciferase activity relative to DMSO controls) [4]: 0.927 fold

NC12CC3CC(CC(C3)C1)C2 [AMANTIDINE]
Log2 (fold) (luciferase activity, log2 of the fold difference relative to DMSO controls) [1]: −0.252
Fold (luciferase activity, fold difference relative to DMSO controls) [2]: 0.840

CCCCC[C@H](O)CC(=O)CCc1ccc(O)c(OC)c1 [GINGEROL]
Log2 (fold) (luciferase activity, log2 of the fold difference relative to DMSO controls) [1]: −0.273
Fold (luciferase activity, fold difference relative to DMSO controls) [2]: 0.827

CC1=C(/C=C/C(C)=C/C=C/C(C)=C/C(=O)O)C(C)(C)CCC1 [RETINOIC ACID, ALL TRANS]
Log2 (fold) of luciferase activity relative to DMSO controls [3]: −0.162
Fold (luciferase activity relative to DMSO controls) [4]: 0.894 fold

CC(N/C(=N\C#N)Nc1ccncc1)C(C)(C)C (stereo not drawn)
Log2 (fold) (luciferase activity, log2 of the fold difference relative to DMSO controls) [1]: −0.591
Fold (luciferase activity, fold difference relative to DMSO controls) [2]: 0.664

C=C1C(=O)O[C@@H]2C[C@@H](C)[C@@H]3C=CC(=O)[C@@]3(C)[C@@H](O)[C@H]12 [Helenalin]
Fold (luciferase activity relative to DMSO controls) (in vivo): 1.112 fold
Log2 (fold) of luciferase activity relative to DMSO controls (in vivo): 0.154

CCN(CC)CCNC(=O)c1ccc(N)cc1 [PROCAINAMIDE]
Log2 (fold) (luciferase activity, log2 of the fold difference relative to DMSO controls) [1]: −0.346
Fold (luciferase activity, fold difference relative to DMSO controls) [2]: 0.787

NC(=Nc1ccccc1)NC(=O)c1nc(Cl)c(N)nc1N
Log2 (fold) of luciferase activity relative to DMSO controls [3]: 0.088
Fold (luciferase activity relative to DMSO controls) [4]: 1.063 fold

CC1(COc2ccc(CC3SC(=O)NC3=O)cc2)CCCCC1 (stereo not drawn) [CIGLITAZONE]
Log2 (fold) of luciferase activity relative to DMSO controls [3]: 0.038
Fold (luciferase activity relative to DMSO controls) [4]: 1.027 fold

CC(C)(c1ccc(OCC2CO2)cc1)c1ccc(OCC2CO2)cc1 (stereo not drawn) [BADGE]
Log2 (fold) of luciferase activity relative to DMSO controls [3]: 0.345
Fold (luciferase activity relative to DMSO controls) [4]: 1.270 fold

COc1ccc(C[C@H](N)C(=O)N[C@H]2[C@@H](O)[C@H](n3cnc4c(N(C)C)ncnc43)O[C@@H]2CO)cc1 [puromycin]
Log2 (fold) of luciferase activity relative to DMSO controls [3]: 0.281
Fold (luciferase activity relative to DMSO controls) [4]: 1.215 fold

O=C1C(SCCO)=C(SCCO)C(=O)c2ccccc21 [NSC-95397]
Log2 (fold) (luciferase activity, log2 of the fold difference relative to DMSO controls) [1]: −0.495
Fold (luciferase activity, fold difference relative to DMSO controls) [2]: 0.709

O=S(=O)(c1cccc2c(Cl)cccc12)N1CCCNCC1 [ML9]
Log2 (fold) (luciferase activity, log2 of the fold difference relative to DMSO controls) [1]: −0.458
Fold (luciferase activity, fold difference relative to DMSO controls) [2]: 0.728

CC/C=C\C/C=C\C/C=C\CCCCCCCCCCCC(=O)O [DOCOSATRIENOIC ACID (22:3 n-3)]
Log2 (fold) of luciferase activity relative to DMSO controls [3]: −0.055
Fold (luciferase activity relative to DMSO controls) [4]: 0.963 fold

CC(C)[C@@H](O)CC[C@@H](C)[C@H]1CC[C@H]2[C@@H]3CC=C4C[C@@H](O)CC[C@]4(C)[C@H]3CC[C@]12C [24(S)-hydroxycholesterol]
Log2 (fold) (luciferase activity, log2 of the fold difference relative to DMSO controls) [1]: −0.244
Fold (luciferase activity, fold difference relative to DMSO controls) [2]: 0.844

CC(O)(C(=O)Nc1ccc(S(=O)(=O)c2ccccc2)cc1)C(F)(F)F (stereo not drawn) [ZM226600]
Log2 (fold) of luciferase activity relative to DMSO controls [3]: −0.117
Fold (luciferase activity relative to DMSO controls) [4]: 0.922 fold

CN(C)c1ccc(/C=C2\C(=O)Nc3ccccc32)cc1 [SU-4312]
Log2 (fold) of luciferase activity relative to DMSO controls [3]: 0.118
Fold (luciferase activity relative to DMSO controls) [4]: 1.085 fold

CCCCCCCCCCCCCCCCCCc1ccc(C(=O)/C=C/C(=O)O)cc1 [OBAA]
Log2 (fold) of luciferase activity relative to DMSO controls [3]: −0.169
Fold (luciferase activity relative to DMSO controls) [4]: 0.890 fold

BW-B 70C
Log2 (fold) of luciferase activity relative to DMSO controls [3]: 0.116
Fold (luciferase activity relative to DMSO controls) [4]: 1.084 fold

OC[C@H]1NC[C@@H](O)[C@@H](O)[C@@H]1O [deoxymannojirimycin(1)]
Log2 (fold) of luciferase activity relative to DMSO controls [3]: −0.125
Fold (luciferase activity relative to DMSO controls) [4]: 0.917 fold

COCc1nc2c([nH]1)c(=O)n(C)c(=O)n2CC(C)C [8-methoxymethyl-IBMX]
Log2 (fold) of luciferase activity relative to DMSO controls [3]: 0.006
Fold (luciferase activity relative to DMSO controls) [4]: 1.004 fold

CCCCCCCCCCCCC/C=C/[C@@H](O)[C@H](CO)NC(=O)CCCCCCCCCCCCCCC [C16 CERAMIDE]
Log2 (fold) (luciferase activity, log2 of the fold difference relative to DMSO controls) [1]: −0.496
Fold (luciferase activity, fold difference relative to DMSO controls) [2]: 0.709

CCCCCCCCCCCCC/C=C/[C@@H](O)[C@H](CO)NC(=O)CCCCCCC [C8 CERAMIDE]
Log2 (fold) (luciferase activity, log2 of the fold difference relative to DMSO controls) [1]: −0.427
Fold (luciferase activity, fold difference relative to DMSO controls) [2]: 0.744

O=C(O)c1ccccc1Nc1cccc(C(F)(F)F)c1 [FLUFENAMIC ACID]
Log2 (fold) (luciferase activity, log2 of the fold difference relative to DMSO controls) [1]: −0.214
Fold (luciferase activity, fold difference relative to DMSO controls) [2]: 0.862

COc1ccc(CCN(C)CCCC(C#N)(c2ccc(OC)c(OC)c2)C(C)C)cc1OC (stereo not drawn)
Fold (luciferase activity, fold difference relative to DMSO controls) (in vivo): 0.838
Log2 (fold) (luciferase activity, log2 of the fold difference relative to DMSO controls) (in vivo): −0.255

CCCCCCCCCCCCCCCC(=O)C1=C(O)C(CO)OC1=O (stereo not drawn) [RK-682]
Log2 (fold) (luciferase activity, log2 of the fold difference relative to DMSO controls) [1]: −0.492
Fold (luciferase activity, fold difference relative to DMSO controls) [2]: 0.711

CCCCC/C=C\C[C@@H](O)/C=C/c1cccc(C[C@@H](O)CCCCO)n1 [U-75302]
Log2 (fold) of luciferase activity relative to DMSO controls [3]: −0.041
Fold (luciferase activity relative to DMSO controls) [4]: 0.972 fold

N#CC(=Cc1ccc2[nH]ccc2c1)C(N)=C(C#N)C#N [tyrphostin AG-370]
Log2 (fold) of luciferase activity relative to DMSO controls [3]: 0.314
Fold (luciferase activity relative to DMSO controls) [4]: 1.243 fold

O=c1c(-c2ccc(O)cc2)coc2cc(O)cc(O)c12 [genistein]
Log2 (fold) (luciferase activity, log2 of the fold difference relative to DMSO controls) [1]: −0.275
Fold (luciferase activity, fold difference relative to DMSO controls) [2]: 0.826

CCCCCCCC/C=C\C/C=C\C/C=C\CCCC(=O)O [MEAD ACID (20:3 n-9)]
Log2 (fold) (luciferase activity, log2 of the fold difference relative to DMSO controls) [1]: −0.279
Fold (luciferase activity, fold difference relative to DMSO controls) [2]: 0.824

C=CC[C@@H]1/C=C(\C)C[C@H](C)C[C@H](OC)[C@H]2O[C@@](O)(C(=O)C(=O)N3CCCC[C@H]3C(=O)O[C@H](/C(C)=C/[C@@H]3CC[C@@H](O)[C@H](OC)C3)[C@H](C)[C@@H](O)CC1=O)[C@H](C)C[C@@H]2OC [FK-506]
Log2 (fold) (luciferase activity, log2 of the fold difference relative to DMSO controls) [1]: −0.699
Fold (luciferase activity, fold difference relative to DMSO controls) [2]: 0.616

COCCOC(=O)C1=C(C)NC(C)=C(C(=O)OC(C)C)C1c1cccc([N+](=O)[O-])c1 (stereo not drawn) [NIMODIPINE]
Log2 (fold) (luciferase activity, log2 of the fold difference relative to DMSO controls) [1]: −0.238
Fold (luciferase activity, fold difference relative to DMSO controls) [2]: 0.848

CC(=O)C1=C(O)[C@@H]2[C@H]3c4c[nH]c5cccc(c45)C[C@H]3C(C)(C)N2C1=O [CYCLOPIAZONIC ACID]
Log2 (fold) of luciferase activity relative to DMSO controls [3]: 0.072
Fold (luciferase activity relative to DMSO controls) [4]: 1.051 fold

CCCCC[C@H](O)/C=C/[C@@H]1[C@H](C/C=C\CCCC(=O)O)[C@@H](O)C[C@H]1O [8-EPI-PROSTAGLANDIN F2a]
Log2 (fold) (luciferase activity, log2 of the fold difference relative to DMSO controls) [1]: −0.657
Fold (luciferase activity, fold difference relative to DMSO controls) [2]: 0.634

O=c1[nH]c2cc(C(F)(F)F)ccc2n1-c1cc(C(F)(F)F)ccc1O [NS-1619]
Log2 (fold) (luciferase activity, log2 of the fold difference relative to DMSO controls) [1]: −0.495
Fold (luciferase activity, fold difference relative to DMSO controls) [2]: 0.709

CN(C)C(=O)C(CCN1CCC(O)(c2ccc(Cl)cc2)CC1)(c1ccccc1)c1ccccc1 [LOPERAMIDE]
Fold (luciferase activity, fold difference relative to DMSO controls) (in vivo): 0.786
Log2 (fold) (luciferase activity, log2 of the fold difference relative to DMSO controls) (in vivo): −0.347

CC1=C(CC/C(C)=C/CCC2=CC[C@H](C3=CC(=O)O[C@H]3O)O[C@H]2O)C(C)(C)CCC1 [Manoalide]
Log2 (fold) (luciferase activity, log2 of the fold difference relative to DMSO controls) [1]: −0.490
Fold (luciferase activity, fold difference relative to DMSO controls) [2]: 0.712

Cc1cccc(CCN2CCC(C(=O)c3ccc(NS(C)(=O)=O)cc3)CC2)n1 [E-4031]
Log2 (fold) of luciferase activity relative to DMSO controls [3]: −0.195
Fold (luciferase activity relative to DMSO controls) [4]: 0.874 fold

O[C@H]1[C@H]2[C@H](O)CCCN2C[C@H]1O [swainsonine]
Log2 (fold) (luciferase activity, log2 of the fold difference relative to DMSO controls) [1]: −0.233
Fold (luciferase activity, fold difference relative to DMSO controls) [2]: 0.851

CNC(=O)[C@H]1O[C@@H](n2cnc3c(NCc4cccc(I)c4)ncnc32)[C@H](O)[C@@H]1O [IB-MECA]
Log2 (fold) of luciferase activity relative to DMSO controls [3]: −0.083
Fold (luciferase activity relative to DMSO controls) [4]: 0.944 fold

CC(C)[C@@H]1NC(=O)[C@H](C)OC(=O)[C@@H](C(C)C)NC(=O)[C@@H](C(C)C)OC(=O)[C@H](C(C)C)NC(=O)[C@H](C)OC(=O)[C@@H](C(C)C)NC(=O)[C@@H](C(C)C)OC(=O)[C@H](C(C)C)NC(=O)[C@H](C)OC(=O)[C@@H](C(C)C)NC(=O)[C@@H](C(C)C)OC1=O [valinomycin]
Log2 (fold) (luciferase activity, log2 of the fold difference relative to DMSO controls) [1]: −0.408
Fold (luciferase activity, fold difference relative to DMSO controls) [2]: 0.754
